Measurements: US7655677B2, “Composition and method for controlling house insect pest” (priority 2002, dated 2010)

Assays:
Type in all cases: in vivo
Reticulitermes speratus = assay: Test Example 10: coated Japanese red pine wood block, termite mortality and weight loss after 24 days; details: wood block coated with 0.2% solution
Procedure: Mean weight loss (%) of the wood block=(W1−W2/W1)×100
A solution containing a sample compound in a predetermined concentration was coated by a paint brush in an amount of 110±10 mg on a rectangular parallelpiped wood block of Japanese red pine (20 mm×10 mm×10 mm). The treated wood block was naturally dried in a dark room of 25° C. for 14 days. Then, the treated wood block and a non-treated wood block were dried at a temperature of 60° C. for 72 hours, and their weights (W1) were measured, and they were used as test specimens. Such a test specimen was put into a cylindrical cup made of acrylic resin (i.e. a cup having a hole with a diameter of 10 mm formed in the bottom and having hard plaster (Dental Stone) set at the bottom in a thickness of 10 mm), and 150 termite workers and 10 termite soldiers (Reticulitermes speratus) were released thereon. The cup was placed in a container having wet cotton laid over the bottom, and the container was maintained at room temperature of 25° C. for 24 days, whereupon the mortality of termites in the cup was examined. Further, the test specimen was taken out from the cup, and the deposited substance was removed from the surface of the test specimen. After drying at a temperature of 60° C. for 72 hours, it was weighed to obtain the weight (W2), whereupon the mean weight loss was calculated.

Coptotermes formosanus [1] = assay: Test Example 17: dust placed in ant trail, termite mortality with time; details: 0.5% dust, 10 mg in ant trail
Procedure: Soil was packed in a cylindrical connection section made of an acrylic resin connecting two cups made of acrylic resin (i.e. cups each having a hole with a diameter of 10 mm formed in the bottom and having hard plaster (Dental Stone) set at the bottom in a thickness of 10 mm), and 30 termite workers and 3 termite soldiers (Coptotermes formosanus) were released to let them form an ant trail. Then, at the center portion of the ant trail, 10 mg of a dust prepared by mixing in a mortar 0.5 part by weight of a sample compound and 99.5 parts by weight of cellulose powder, was placed. This test apparatus was put into a container having wet cotton laid over the bottom and kept at room temperature of 25° C., whereby the number of dead termites in the cup was examined as the time passed, and the mortality was calculated. Further, for the purpose of comparison, a similar test was carried out with respect to a dust containing 0.5% of fipronil (Terminal Dust, tradename, manufactured by Aventis Crop Science Shionogi K.K.).

Coptotermes formosanus [2] = assay: Test Example 19: gel coated on Japanese red pine wood block, termite mortality with time
Excerpt: A gel prepared by uniformity mixing 0.2 part by weight of […], 20 parts by weight of sorbitol, 3.5 parts by weight of cross-linked product of a starch/sodium acrylate copolymer, a predetermined amount of a sample compound and a predetermined amount of water, was coated in an amount of 110 g/m^2 on a dried rectangular parallelpiped wood block of Japanese red pine of 20 mm (L)×10 mm (R)×10 mm (T). This test specimen was put into a cylindrical cup made of acrylic resin (i.e. a cup having a hole with a diameter of 10 mm in the bottom and having hard plaster (Dental Stone) set at the bottom in a thickness of 10 mm), and 20 termite workers (Coptotermes formosanus) were released thereon. The cup was placed in a container having wet cotton laid over the bottom, and the container was maintained at room temperature of 25° C., whereby the number of dead termites in the cup was examined as the time passed, and the mortality was calculated.

Coptotermes formosanus [3] = assay: Test Example 14: Japanese red pine poison bait, spread from bait-treated to non-treated termites; details: for Mortality TS (Termite soldiers): 5 non-treated soldiers; for Mortality TW (Termite workers): 5 treated + 5 non-treated workers
Procedure: A Japanese red pine poison bait chemical prepared in the same manner as in Test Example 13, was placed in a cylindrical cup made of acrylic resin (i.e. a cup having a hole with a diameter of 10 mm formed in the bottom and having hard plaster (Dental Stone) set at the bottom in a thickness of 10 mm), and 5 termite workers (Coptotermes formosanus) starved for 3 days, were released and permitted to ingest for 48 hours. Such bait-treated 5 alive termite workers were transferred together with non-treated 5 termite workers and 5 termite soldiers to a cup wherein a filter paper containing water was placed, and they were kept at room temperature of 25° C., whereby the number of dead termite workers and soldiers was examined as the time passed, and the mortality was calculated by the following formula.
Mortality of workers (%)=(number of dead termite workers/treated 5 termite workers+non-treated 5 termite workers)×100
Mortality of soldiers (%) (number of dead termite soldiers/non-treated 5 termite soldiers)×100

## CC(=NN=C(Cc1ccc(C(F)(F)F)cc1)c1ccc(F)cc1)N(C)C [Compound No. II-2, [4′-fluoro-2-(4-trifluoromethylphenyl)acetophenone]N′-[1-(dimethylamino)ethylidene]hydrazone]
Reticulitermes speratus
  Mean weight loss: 2.9%
  Mortality Termite soldiers: 100%
  Mortality Termite workers: 100%
Coptotermes formosanus [1]; 6 Days later
  Mortality: 37%
Coptotermes formosanus [1]; 11 Days later
  Mortality: 100%
Coptotermes formosanus [1]; 15 Days later
  Mortality: 100%
Coptotermes formosanus [2]; gel 0.005%, 2 Days later
  Mortality: 0%
Coptotermes formosanus [2]; gel 0.005%, 6 Days later
  Mortality: 0%
Coptotermes formosanus [2]; gel 0.005%, 12 Days later
  Mortality: 10%
Coptotermes formosanus [2]; gel 0.005%, 23 Days later
  Mortality: 30%
Coptotermes formosanus [2]; gel 0.005%, 34 Days later
  Mortality: 60%
Coptotermes formosanus [2]; gel 0.01%, 2 Days later
  Mortality: 0%
Coptotermes formosanus [2]; gel 0.01%, 6 Days later
  Mortality: 0%
Coptotermes formosanus [2]; gel 0.01%, 12 Days later
  Mortality: 10%
Coptotermes formosanus [2]; gel 0.01%, 23 Days later
  Mortality: 60%
Coptotermes formosanus [2]; gel 0.01%, 34 Days later
  Mortality: 100%
Coptotermes formosanus [2]; gel 0.05%, 2 Days later
  Mortality: 0%
Coptotermes formosanus [2]; gel 0.05%, 6 Days later
  Mortality: 0%
Coptotermes formosanus [2]; gel 0.05%, 12 Days later
  Mortality: 100%
Coptotermes formosanus [2]; gel 0.05%, 23 Days later
  Mortality: 100%
Coptotermes formosanus [2]; gel 0.05%, 34 Days later
  Mortality: 100%
Coptotermes formosanus [2]; gel 0.1%, 2 Days later
  Mortality: 0%
Coptotermes formosanus [2]; gel 0.1%, 6 Days later
  Mortality: 60%
Coptotermes formosanus [2]; gel 0.1%, 12 Days later
  Mortality: 100%
Coptotermes formosanus [2]; gel 0.1%, 23 Days later
  Mortality: 100%
Coptotermes formosanus [2]; gel 0.1%, 34 Days later
  Mortality: 100%
Coptotermes formosanus [3]; bait 0.05%, 6 Days later
  Mortality TS (Termite soldiers): 0%
  Mortality TW (Termite workers): 30%
Coptotermes formosanus [3]; bait 0.05%, 8 Days later
  Mortality TS (Termite soldiers): 0%
  Mortality TW (Termite workers): 30%
Coptotermes formosanus [3]; bait 0.05%, 15 Days later
  Mortality TS (Termite soldiers): 40%
  Mortality TW (Termite workers): 70%
Coptotermes formosanus [3]; bait 0.1%, 6 Days later
  Mortality TS (Termite soldiers): 0%
  Mortality TW (Termite workers): 50%
Coptotermes formosanus [3]; bait 0.1%, 8 Days later
  Mortality TS (Termite soldiers): 20%
  Mortality TW (Termite workers): 60%
Coptotermes formosanus [3]; bait 0.1%, 15 Days later
  Mortality TS (Termite soldiers): 100%
  Mortality TW (Termite workers): 100%
